# Data as given in patent US9382197B2, “Substituted hydroxamic acids and uses thereof” (Millennium Pharmaceuticals, Inc., priority 2010, dated 2016).
# Target: T1, purified human HDAC6 (Homo sapiens, UniProt Q9UBN7)
# T1 construct: purchased BPS Bioscience 5006
# T1 sequence (Q9UBN7 1-1215): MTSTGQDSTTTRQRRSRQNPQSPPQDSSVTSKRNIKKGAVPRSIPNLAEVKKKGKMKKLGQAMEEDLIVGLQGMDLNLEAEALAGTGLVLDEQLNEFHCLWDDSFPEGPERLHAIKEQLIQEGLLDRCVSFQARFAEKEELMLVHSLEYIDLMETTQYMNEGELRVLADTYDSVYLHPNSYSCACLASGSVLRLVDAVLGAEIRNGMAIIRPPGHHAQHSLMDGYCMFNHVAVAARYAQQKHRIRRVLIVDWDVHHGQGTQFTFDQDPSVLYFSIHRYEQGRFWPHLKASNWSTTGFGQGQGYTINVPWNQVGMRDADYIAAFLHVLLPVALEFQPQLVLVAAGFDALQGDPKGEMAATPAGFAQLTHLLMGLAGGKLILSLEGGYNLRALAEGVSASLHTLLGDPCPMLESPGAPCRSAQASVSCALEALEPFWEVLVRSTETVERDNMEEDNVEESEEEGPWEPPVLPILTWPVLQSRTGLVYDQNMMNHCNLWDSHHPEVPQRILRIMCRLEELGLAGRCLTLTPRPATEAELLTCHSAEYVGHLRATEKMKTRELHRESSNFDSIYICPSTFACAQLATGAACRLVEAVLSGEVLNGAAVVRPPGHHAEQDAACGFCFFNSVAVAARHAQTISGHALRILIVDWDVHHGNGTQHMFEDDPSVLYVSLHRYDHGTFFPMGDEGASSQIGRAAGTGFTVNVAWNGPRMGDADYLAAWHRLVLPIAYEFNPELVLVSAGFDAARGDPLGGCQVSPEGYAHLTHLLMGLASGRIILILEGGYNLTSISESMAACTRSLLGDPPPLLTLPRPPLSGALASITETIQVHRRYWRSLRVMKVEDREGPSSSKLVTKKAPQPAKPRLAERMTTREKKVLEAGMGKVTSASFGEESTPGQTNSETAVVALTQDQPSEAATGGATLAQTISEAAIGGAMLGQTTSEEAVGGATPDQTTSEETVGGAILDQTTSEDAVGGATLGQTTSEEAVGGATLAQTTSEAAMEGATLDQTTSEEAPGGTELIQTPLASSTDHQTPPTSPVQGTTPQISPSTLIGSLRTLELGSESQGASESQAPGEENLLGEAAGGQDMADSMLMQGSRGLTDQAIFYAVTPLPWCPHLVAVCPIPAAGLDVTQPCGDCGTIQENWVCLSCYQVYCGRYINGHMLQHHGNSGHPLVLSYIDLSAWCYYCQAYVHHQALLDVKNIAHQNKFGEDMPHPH
# Test: HDAC6 Enzyme Assay
# Type: biochemical
# Protocol: To measure the inhibition of HDAC6 activity, purified human HDAC6 (BPS Bioscience; Cat. No. 5006) is incubated with substrate Ac-Arg-Gly-Lys(Ac)-AMC peptide (Bachem Biosciences; Cat. No. 1-1925) for 1 hour at 30° C. in the presence of test compounds or vehicle DMSO control. The reaction is stopped with the HDAC inhibitor trichostatin A (Sigma; Cat. No. T8552) and the amount of Arg-Gly-Lys-AMC generated is quantitated by digestion with trypsin (Sigma; Cat. No. T1426) and subsequent measurement of the amount of AMC released using a fluorescent plate reader (Pherastar; BMG Technologies) set at Ex 340 nm and Em 460 nm. Concentration response curves are generated by calculating the fluorescence increase in test compound-treated samples relative to DMSO-treated controls, and enzyme inhibition (IC50) values are determined from those curves.
# [1] = purified human HDAC6, substrate Ac-Arg-Gly-Lys(Ac)-AMC, 1 hour at 30° C., reported as bins
# [2] = bin: greater than 500 nM and less than 1 μM (lower bound in nM, upper bound in μM)
SMILES,IC50 [1] [nM],also measured
"C[C@@H](NC(=O)C12CC3CC(CC(C3)C1)C2)c1cccc(C(=O)NO)c1 [Compound I-312, N-((1R)-1-{3-[(hydroxyamino)carbonyl]phenyl}ethyl)adamantane-1-carboxamide]",–,IC50 (bin: greater than 1 μM): > 1000 nM
"CC(C)[C@@H](NC(=O)N[C@H](C)c1ccccc1)c1ccc(C(=O)NO)cc1 [Compound I-514, N-hydroxy-4-[(1R)-2-methyl-1-({[(1R)-1-phenylethyl]carbamoyl}amino)propyl]benzamide]",< 100,–
"CC(C)c1ccc(CC(=O)NC(C)c2ccc(C(=O)NO)cc2)cc1 (centres unmarked) [Compound I-285, N-hydroxy-4-(1-{[(4-isopropylphenyl)acetyl]amino}ethyl)benzamide]",–,IC50 (bin: greater than 1 μM): > 1000 nM
"CC(NC(=O)Cc1ccccc1Cl)c1ccc(C(=O)NO)cc1 (centres unmarked) [Compound I-292, 4-(1-{[(2-chlorophenyl)acetyl]amino}ethyl)-N-hydroxybenzamide]",–,IC50 (bin: greater than 1 μM): > 1000 nM
"Cc1nn(C)cc1C(=O)NC(C)c1cccc(C(=O)NO)c1 (centres unmarked) [Compound I-167, N-(1-{3-[(hydroxyamino)carbonyl]phenyl}ethyl)-1,3-dimethyl-1H-pyrazole-4-carboxamide]",–,IC50 (bin: greater than 1 μM): > 1000 nM
"CC(NC(=O)c1c2c(nn1C)CCCC2)c1cccc(C(=O)NO)c1 (centres unmarked) [Compound I-101, N-(1-{3-[(hydroxyamino)carbonyl]phenyl}ethyl)-2-methyl-4,5,6,7-tetrahydro-2H-indazole-3-carboxamide]",–,IC50 [2]: 500 to 1000 nM
"CC(NC(=O)C1CCC1)c1ccc(C(=O)NO)cc1 (centres unmarked) [Compound I-21, 4-{1-[(cyclobutylcarbonyl)amino]ethyl}-N-hydroxybenzamide]",100 to 500,–
"Cn1nc2c(c1C(=O)NC(c1ccc(C(=O)NO)cc1)C(C)(C)C)CCCC2 (centres unmarked) [Compound I-211, N-(1-{4-[(hydroxyamino)carbonyl]phenyl}-2,2-dimethylpropyl)-2-methyl-4,5,6,7-tetrahydro-2H-indazole-3-carboxamide]",–,IC50 (bin: greater than 1 μM): > 1000 nM
"CC(NC(=O)c1cc(F)cc(F)c1)c1cccc(C(=O)NO)c1 (centres unmarked) [Compound I-137, 3,5-difluoro-N-(1-{3-[(hydroxyamino)carbonyl]phenyl}ethyl)benzamide]",–,IC50 [2]: 500 to 1000 nM
"CC(=O)c1cccc(NC(=O)NC(C)c2ccc(C(=O)NO)cc2)c1 (centres unmarked) [Compound I-358, 4-[1-({[(3-acetylphenyl)amino]carbonyl}amino)ethyl]-N-hydroxybenzamide]",< 100,–
"Cc1cc(C)cc(NC(=O)NC(C)c2ccc(C(=O)NO)cc2)c1 (centres unmarked) [Compound I-397, 4-[1-({[(3,5-dimethylphenyl)amino]carbonyl}amino)ethyl]-N-hydroxybenzamide]",< 100,–
"O=C(NO)c1ccc([C@H](NC(=O)C23CC4CC(CC(C4)C2)C3)C2CC2)cc1 [Compound I-46, N-((R)-cyclopropyl{4-[(hydroxyamino)carbonyl]phenyl}methyl)adamantane-1-carboxamide]",100 to 500,–
"Cn1c(C(=O)NC(c2ccc(C(=O)NO)cc2)C(C)(C)C)cc2oc(-c3ccccc3)cc21 (centres unmarked) [Compound I-392, N-(1-{4-[(hydroxyamino)carbonyl]phenyl}-2,2-dimethylpropyl)-4-methyl-2-phenyl-4H-furo[3,2-b]pyrrole-5-carboxamide]",–,IC50 (bin: greater than 1 μM): > 1000 nM
"Cc1cc(C(=O)NC(c2ccc(C(=O)NO)cc2)C(C)(C)C)c(C)[nH]1 (centres unmarked) [Compound I-310, N-(1-{4-[(hydroxyamino)carbonyl]phenyl}-2,2-dimethylpropyl)-2,5-dimethyl-1H-pyrrole-3-carboxamide]",100 to 500,–
"CC(C)C(NC(=O)c1cnccn1)c1ccc(C(=O)NO)cc1 (centres unmarked) [Compound I-203, N-(1-{4-[(hydroxyamino)carbonyl]phenyl}-2-methylpropyl)pyrazine-2-carboxamide]",100 to 500,–
"CC(NS(=O)(=O)c1ccc(F)cc1)c1ccc(C(=O)NO)cc1 (centres unmarked) [Compound I-2, 4-(1-{[(4-fluorophenyl)sulfonyl]amino}ethyl)-N-hydroxybenzamide]",100 to 500,–
"Cc1cccc(NC(=O)NC(C)c2ccc(C(=O)NO)cc2)c1C (centres unmarked) [Compound I-175, 4-[1-({[(2,3-dimethylphenyl)amino]carbonyl}amino)ethyl]-N-hydroxybenzamide]",< 100,–
"CC(C)[C@@H](NC(=O)c1ccc(-c2ccccc2)cc1)c1ccc(C(=O)NO)cc1 [Compound I-341, N-((1R)-1-{4-[(hydroxyamino)carbonyl]phenyl}-2-methylpropyl)biphenyl-4-carboxamide]",< 100,–
"Cn1nc(C(C)(C)C)cc1C(=O)NC(c1ccc(C(=O)NO)cc1)C(C)(C)C (centres unmarked) [Compound I-291, 3-tert-butyl-N-(1-{4-[(hydroxyamino)carbonyl]phenyl}-2,2-dimethylpropyl)-1-methyl-1H-pyrazole-5-carboxamide]",100 to 500,–
"CC(NC(=O)CC(C)(C)C)c1cccc(C(=O)NO)c1 (centres unmarked) [Compound I-333, 3-{1-[(3,3-dimethylbutanoyl)amino]ethyl}-N-hydroxybenzamide]",–,IC50 (bin: greater than 1 μM): > 1000 nM
"CC(NC(=O)C1(C)CCCCC1)c1ccc(C(=O)NO)cc1 (centres unmarked) [Compound I-132, N-hydroxy-4-(1-{[(1-methylcyclohexyl)carbonyl]amino}ethyl)benzamide]",< 100,–
"CC(NC(=O)Nc1ccc(F)cc1)c1ccc(C(=O)NO)cc1 (centres unmarked) [Compound I-37, 4-[1-({[(4-fluorophenyl)amino]carbonyl}amino)ethyl]-N-hydroxybenzamide]",< 100,–
"CC(NC(=O)Nc1cccc2nsnc12)c1ccc(C(=O)NO)cc1 (centres unmarked) [Compound I-293, 4-(1-{[(2,1,3-benzothiadiazol-4-ylamino)carbonyl]amino}ethyl)-N-hydroxybenzamide]",< 100,–
"CC(NC(=O)c1csc2ccccc12)c1ccc(C(=O)NO)cc1 (centres unmarked) [Compound I-244, N-(1-{4-[(hydroxyamino)carbonyl]phenyl}ethyl)-1-benzothiophene-3-carboxamide]",–,IC50 (bin: greater than 1 μM): > 1000 nM
"CC(NS(=O)(=O)c1cccc2cccnc12)c1ccc(C(=O)NO)cc1 (centres unmarked) [Compound I-363, N-hydroxy-4-{1-[(quinolin-8-ylsulfonyl)amino]ethyl}benzamide]",100 to 500,–
"C[C@@H](NC(=O)c1cc2ccccc2o1)c1ccc(C(=O)NO)cc1 [Compound I-317, N-((1R)-1-{4-[(hydroxyamino)carbonyl]phenyl}ethyl)-1-benzofuran-2-carboxamide]",< 100,–
"CC(C)C(NC(=O)c1cc(F)c(F)cc1F)c1ccc(C(=O)NO)cc1 (centres unmarked) [Compound I-116, 2,4,5-trifluoro-N-(1-{4-[(hydroxyamino)carbonyl]phenyl}-2-methylpropyl)benzamide]",< 100,–
"CC(NC(=O)c1nc2ccccc2n1C)c1cccc(C(=O)NO)c1 (centres unmarked) [Compound I-100, N-(1-{3-[(hydroxyamino)carbonyl]phenyl}ethyl)-1-methyl-1H-benzimidazole-2-carboxamide]",–,IC50 (bin: greater than 1 μM): > 1000 nM

# The next lines start with results.
IC50 [1] [nM],SMILES,also measured
< 100,"CC(C)[C@@H](NC(=O)c1cc2ccccc2n1C)c1ccc(C(=O)NO)cc1 [Compound I-242, N-((1R)-1-{4-[(hydroxyamino)carbonyl]phenyl}-2-methylpropyl)-1-methyl-1H-indole-2-carboxamide]",–
100 to 500,"C[C@@H](NC(=O)c1cc(Cl)c(Cl)n1C)c1cccc(C(=O)NO)c1 [Compound I-301, 4,5-dichloro-N-((1R)-1-{3-[(hydroxyamino)carbonyl]phenyl}ethyl)-1-methyl-1H-pyrrole-2-carboxamide]",–
< 100,"CC(NC(=O)c1ccc(Cl)cc1)c1ccc(C(=O)NO)cc1 (centres unmarked) [Compound I-136, 4-chloro-N-(1-{4-[(hydroxyamino)carbonyl]phenyl}ethyl)benzamide]",–
100 to 500,"Cn1c(C(=O)NC(c2ccc(C(=O)NO)cc2)C(C)(C)C)cc2ccccc21 (centres unmarked) [Compound I-364, N-(1-{4-[(hydroxyamino)carbonyl]phenyl}-2,2-dimethylpropyl)-1-methyl-1H-indole-2-carboxamide]",–
